# According to patent US11382907B2, “Methods and compositions for treating aging-associated impairments using CCR3-inhibitors” (Alkahest, Inc., priority 2017, dated 2022):
# Entries after “also recorded” stand apart in the source; their conditions may differ.
# What was measured:
# [1] = system: aged C57Bl/6 mice; experiment: Barnes maze test in aged mice; type: in vivo
# Text: (§1) A modified Barnes maze was used to assess spatial working/episodic like learning and memory. The Barnes maze apparatus consists of a 122 cm diameter circular platform with 40 escape holes, each with a diameter of 5 cm placed along three rings of varying distances from the center of the platform. An escape box is attached to one of the holes and all holes are left uncovered. Bright lights and a fan are trained on the maze to provide adverse stimuli to encourage escape. Visual cues are placed on all four sides of the maze. Mice are given a series of 4 or 5 trials with inter-trial intervals of approximately 10 min, and the maximum duration of each trial is 90 or 120 sec. For each trial, mice are placed in the center of the maze. After 10 seconds, mice are allowed to explore, and the trial is ended if the mouse has found and entered an escape box before the end of the trial. Mice that cannot find the escape box are led to it and allowed to enter and given 30 sec to remain before being returned to its home cage. Training is done for 4 days. Data that is recorded and analyzed include velocity, escape latency, and distance moved.
# Mice are divided into groups of 4-5 mice each, with balanced treatment groups. For example, Group 1 mice are run for 4 trials, then Group 2 mice are run for 4 trials, and so on until all groups finish testing. 70% ethanol is used to clean the arenas between trials.
# Three-month-old or 16.5-month-old C57Bl/6 mice were dosed with either vehicle control or Compound 1 subcutaneously by Alzet osmotic pump for 4 weeks. During the last week of treatment, mice were subjected to behavior testing prior to perfusion on the last day of treatment. All mice received 5 consecutive days of BrdU injection at 150 mg/kg IP immediately prior to treatment start.
# 23-month-old C57Bl/6 mice were dosed with either vehicle control or Compound 1 subcutaneously twice daily for 21 days. Three weeks later, mice were subjected to behavior testing, and sacrificed the day following the last behavior test.
# [2] = system: two-month-old C57Bl/6 mice treated with rmCCL11; experiment: Barnes maze test in young mice given recombinant mouse CCL11; type: in vivo; conditions: 2-month-old mice; rmCCL11 i.p.; Compound 1 30 mg/kg p.o. b.i.d.
# Text: as §1
# Two-month-old C57Bl/6 mice were dosed with either vehicle control or Compound 1 by oral gavage twice daily for 18 days. During the last week of treatment, mice were subjected to behavior testing prior to perfusion on the last day of treatment. […]
# [3] = system: CD68+ activated microglia; experiment: IHC of CD68+ activated microglia in hippocampus of mice given daily LPS; type: in vivo, C57Bl/6 mice; conditions: 3-month-old mice, daily LPS IP 7 weeks, 30 mg/kg PO BID 4 weeks
# Text: Mice were taken down on the day following the end of behavior testing. Anesthesia was induced by 2,2,2-tribromoethanol and mice were subsequently perfused with 0.9% saline trans-cardially. The brains were dissected and cut sagitally in two even halves. One half was snap frozen for later use in dry ice, and the other was fixed in 4% paraformaldehyde in PBS for use in immunohistochemistry. After two days of fixation, the hemibrains were transferred to a 30% sucrose in PBS solution and changed after two days. Hemibrains were sectioned at 30 um on a microtome at −22° C. Brain sections were stored in cryoprotectant media at −20° C. until needed for staining. Blocking was done on free floating sections in the appropriate serum at 10% serum in PBST 0.5%. Primary antibodies were incubated overnight at 4 C. For light microscopy, the following antibodies were used in the given concentrations: DCX, 1:200, Santa Cruz BioTech, CD68, 1:1000. AbD Serotec. Secondary biotinylated antibodies were applied the next day at a concentration of 1:300. Staining visualization was achieved by reaction with the ABC kit (Vector) and diaminobenzidine (Sigma). Dehydration of the mounted slides was achieved using ethanol and xylene dips. Images were acquired on a Leica light microscope at 5× magnification. […]
# [4] = 16.5-month-old mice, 4-week dosing by pump
# [5] = 23-month-old mice, 30 mg/kg SQ BID 21 days, tested three weeks later
smiles,measurement,setting,value
Cc1cc(C(=O)N(C)C)cc(NC(=O)[C@H]2CCC(=O)N2C2CCN(Cc3ccc(Cl)c(C)c3)CC2)n1 [Compound 1],Barnes maze average of the latency for day 4 trials,[1]; [4],Trends for improved memory
same,Barnes maze difference between the latencies of trials 13 and 16,[1]; [4],Trends for improved memory
same,performance in the Barnes maze,[1]; [4],trended towards improved performance
same,Barnes Maze spatial memory performance,[1]; [5],performed significantly better
same,velocity during the Barnes Maze test,[1]; [5],exhibited increased velocity
same,memory in the Barnes maze,[2],significantly improved memory performance
same,CD68+ immunoreactivity (activated microglia) in hippocampus,[3],dramatically decreased CD68+ immunoreactivity; also recorded: robust trend towards decrease
